Assay results from publication PMC8878317, “Chemogenomics identifies acetyl-coenzyme A synthetase as a target for malaria treatment and prevention” (Cell Chemical Biology, 2022).

System: P. falciparum 3D7 parasites
Test: Metabolomic profiling of compound-treated parasites (LC/MS);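 on Metabolite data: 3-Phosphoglycerate: Log2 fold change in abundance versus untreated parasite controls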;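 on Metabolite data: Myo-Inositol: Log2 fold change in abundance versus untreated parasite controls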;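 on Metabolite data: N-Carbamoyl-L-Aspartate: Log2 fold change in abundance versus untreated parasite controls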;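 on Metabolite data: Nicotinate: Log2 fold change in abundance versus untreated parasite controls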
Assay type: cell-based
Design: Metabolite data: dTMP / Metabolite data: GMP / Metabolite data: S-Adenosyl-L-Homocysteine / Metabolite data: 1_3-Bisphosphoglyceric acid: scale not given here
Method: The metabolite extraction protocol was performed as described elsewhere ([Allman et al., 2016]). Briefly, 1 mL of trophozoites that were magnetically purified to a concentration of 1×10^8 parasites/mL were placed into wells with 4 mL of RPMI 1640 media and allowed to recover for one hour. […] The culture was incubated for another 2.5 hr. The culture was centrifuged and quenched with 90% methanol containing 0.25 μM ^13C,^15N-Labeled-Aspartate, vortexed, and centrifuged. The supernatant was transferred to a new tube and dried for storage. Prior to analysis, the samples were resuspended to a final concentration of 1×10^8 parasites/mL in a solution of 3% methanol:water containing 1 μM chlorpropamide as an internal standard.
The chromatographic conditions used in this experiment were performed with slight modifications from previous methods ([Zhang et al., 2018]). Briefly, a Waters XSelect HSS C18 column was used on a gradient reverse-phase chromatographic configuration with 97:3 water:methanol with 10 mM tributylamine and 15 mM acetic acid (solvent A) and methanol (solvent B). A Thermo-Scientific Exactive Plus Orbitrap mass spectrometer was operated in negative mode for the detection of the metabolites. Peak picking and integration were performed using El-Maven LC/MS data processing software. The peak data were then exported to Excel where metabolite areas were normalized to the internal standards, blank subtracted, and averaged by condition.

Cc1cc(Nc2ccc3ccccc3c2)n2ncnc2n1 [DSM1]
Metabolite data: 1_3-Bisphosphoglyceric acid: 0 | Metabolite data: 2_3-Diphosphoglyceric acid: -0.2991 | Metabolite data: 3-Phosphoglycerate: -0.4141 | Metabolite data: 4-Aminobutyrate: 0.009246 | Metabolite data: 4-Phosphopantothenate: -0.5403 | Metabolite data: 4-phosphopantetheine: 0 | Metabolite data: 5-aminopentanoic acid: 0 | Metabolite data: 5-phosphoribosyl-1-pyrophosphate: 0 | Metabolite data: 6-Phospho-D-Gluconate: -0.253 | Metabolite data: ADP-D-Glucose: -0.1243 | Metabolite data: Acetyl-CoA: -0.3243 | Metabolite data: Acetyllysine: -0.16 | Metabolite data: Aconitate: -0.837 | Metabolite data: CDP: -0.7937 | Metabolite data: CDP-Ethanolamine: -0.6098 | Metabolite data: CDP-choline: 0 | Metabolite data: CMP: -1.862 | Metabolite data: CTP: -3.137 | Metabolite data: Citrate/Isocitrate: -0.6885 | Metabolite data: Cyclic-AMP: -0.9051 | Metabolite data: Dihydroorotate: 2.672 | Metabolite data: FAD: -0.1625 | Metabolite data: FMN: -0.9996 | Metabolite data: Fructose-1,6-Bisphosphate: -0.4129 | Metabolite data: Fumarate: -1.402 | Metabolite data: GDP: 0.4797 | Metabolite data: GMP: 0.1634 | Metabolite data: GTP: -1.061 | Metabolite data: Glucose-1/6-Phosphate: -0.4979 | Metabolite data: Glutathione Disulfide: -0.412 | Metabolite data: Hexose: 0 | Metabolite data: Hydroxyisocaproic acid: 0 | Metabolite data: Indole: -0.8571 | Metabolite data: Ketoleucine: 0 | Metabolite data: L-arginino-succinate: 0 | Metabolite data: Lactate: -0.809 | Metabolite data: Malate: -1.549 | Metabolite data: Myo-Inositol: -1.331 | Metabolite data: N-Acetyl-Glutamate: -0.2257 | Metabolite data: N-Acetyl-L-Alanine: -0.1646 | Metabolite data: N-Acetyl-L-Ornithine: -0.5891 | Metabolite data: N-Carbamoyl-L-Aspartate: 2.4139 | Metabolite data: NAD+: -0.1986 | Metabolite data: NADH: 0.07835 | Metabolite data: NADP+: -0.1908 | Metabolite data: NADPH: -0.3915 | Metabolite data: Nicotinate: -0.7359 | Metabolite data: Octulose 8/1-Phosphate: -0.4585 | Metabolite data: Orotate: -2.835 | Metabolite data: PD: -0.209 | Metabolite data: PE: -0.4415 | Metabolite data: PEEK: -0.4847 | Metabolite data: Phenol Red: 0 | Metabolite data: Pyroglutamic acid: -0.2671 | Metabolite data: S-Adenosyl-L-Homocysteine: -0.1944 | Metabolite data: S-methyl-5'-thioadenosine: -0.4315 | Metabolite data: SD: -0.8655 | Metabolite data: Sedoheptulose Bisphosphate: -0.2224 | Metabolite data: UDP: -2.0359 | Metabolite data: UDP-D-Glucose: -0.2988 | Metabolite data: UDP-D-Glucuronate: -0.2168 | Metabolite data: UDP-N-Acetyl-Glucosamine: -0.4693 | Metabolite data: UMP: -2.06 | Metabolite data: UTP: -4.388 | Metabolite data: a-ketoglutarate: -0.7348 | Metabolite data: acetyl-aspartate: 0 | Metabolite data: arginine: 0 | Metabolite data: asparagine: 0 | Metabolite data: aspartate: 0 | Metabolite data: biotin: 0 | Metabolite data: chlorpropamide: 0 | Metabolite data: coenzyme A: 0 | Metabolite data: dAMP: 1.7179 | Metabolite data: dATP: -0.3141 | Metabolite data: dCDP: -0.1509 | Metabolite data: dCMP: -1.099 | Metabolite data: dCTP: -2.549 | Metabolite data: dGDP/ADP: 0.1331 | Metabolite data: dGMP/AMP: 0.02924 | Metabolite data: dGTP/ATP: 0 | Metabolite data: dTDP: -1.607 | Metabolite data: dTMP: -2.786 | Metabolite data: dTTP: -3.44 | Metabolite data: folate: 0 | Metabolite data: glucono-lactone: 0 | Metabolite data: glutamate: 0 | Metabolite data: glutamine: 0 | Metabolite data: glutathione: 0 | Metabolite data: histidine: 0 | Metabolite data: hydroxyproline/Aminolevulinate: 0 | Metabolite data: isoleucine: 0 | Metabolite data: leucine: 0 | Metabolite data: maleic acid: 0 | Metabolite data: methionine: 0 | Metabolite data: nicotinamide mononucleotide: 0 | Metabolite data: orotidine-5'-phosphate: 0
